Holding throughout (assay): Test A preemergence
What all share (assay type): in vivo

Assay [1] has as its system barnyardgrass (Echinochloa crus-galli). The conditions noted are these: Echinochloa crus-galli, pre-emergence, 240 h; for pest or weed control at 125 g/ha: 125 g ai/ha, Preemergence, visual injury rating after approximately 10 d, read-out: Barnyardgrass plant response rating (0 to 100 scale, 0 is no effect, 100 is complete control); for pest or weed control at 500 g/ha: 500 g ai/ha, preemergence, visual injury rating about 10 d after treatment, 0 to 100 scale (0 no effect, 100 complete control), read-out: Barnyardgrass plant response rating. A digest of the protocol:
(§1)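 Visual injury scores from 0, no effect, to 100, complete control, were assigned versus untreated controls roughly 10 d after treatment in the greenhouse. Test chemicals, formulated with surfactant in a non-phytotoxic solvent, were applied to planted seeds as a preemergence soil spray or postemergence to one- to two-leaf plants 2 to 10 cm tall, in loam–sand soil.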

The subject of assay [2] is Kochia (Kochia scoparia). The conditions noted are these: Bassia scoparia, pre-emergence, 240 h; for pest or weed control at 125 g/ha: 125 g ai/ha, Preemergence, visual injury rating after approximately 10 d, read-out: Kochia plant response rating (0 to 100 scale, 0 is no effect, 100 is complete control); for pest or weed control at 500 g/ha: 500 g ai/ha, preemergence, visual injury rating about 10 d after treatment, 0 to 100 scale (0 no effect, 100 complete control), read-out: Kochia plant response rating. An outline of the steps: as §1

Assay [3] deals with giant foxtail (Setaria faberii). The conditions noted are these: Setaria faberi, pre-emergence, 240 h; for pest or weed control at 125 g/ha: 125 g ai/ha, Preemergence, visual injury rating after approximately 10 d, read-out: Foxtail, Giant plant response rating (0 to 100 scale, 0 is no effect, 100 is complete control); for pest or weed control at 500 g/ha: 500 g ai/ha, preemergence, visual injury rating about 10 d after treatment, 0 to 100 scale (0 no effect, 100 complete control), read-out: Foxtail, Giant plant response rating. A digest of the protocol:
as §1

Assay [4] concerns pigweed (Amaranthus retroflexus). The conditions noted are these: Amaranthus retroflexus, pre-emergence, 240 h; for pest or weed control at 125 g/ha: 125 g ai/ha, Preemergence, visual injury rating after approximately 10 d, read-out: Pigweed plant response rating (0 to 100 scale, 0 is no effect, 100 is complete control); for pest or weed control at 500 g/ha: 500 g ai/ha, preemergence, visual injury rating about 10 d after treatment, 0 to 100 scale (0 no effect, 100 complete control), read-out: Pigweed plant response rating.

Assay [5] concerns ragweed (common ragweed, Ambrosia elatior). The conditions noted are these: Ambrosia artemisiifolia, pre-emergence, 240 h; for pest or weed control at 125 g/ha: 125 g ai/ha, Preemergence, visual injury rating after approximately 10 d, read-out: Ragweed plant response rating (0 to 100 scale, 0 is no effect, 100 is complete control); for pest or weed control at 500 g/ha: 500 g ai/ha, preemergence, visual injury rating about 10 d after treatment, 0 to 100 scale (0 no effect, 100 complete control), read-out: Ragweed plant response rating. A digest of the protocol: as §1

Structures are written as SMILES.

Pest or weed control data for 13 compounds are collected here from patent US12077503B2, “Substituted cyclic amides and their use as herbicides” (FMC CORPORATION, priority 2015, dated 2024).

With `CN1C[C@H](c2cc(F)cc(F)c2)[C@@H](C(=O)Nc2cc(O)ccc2F)C1=O` [Compound 992], the pest or weed control at 125 g/ha in assay [1], in assay [2], in assay [3], in assay [4] and in assay [5] was 0% each time. Besides, the pest or weed control at 500 g/ha in assay [1], in assay [2], in assay [3], in assay [4] and in assay [5] was 0% each time.

Consider `CN1C[C@H](c2cc(F)cc(C(F)(F)F)c2)[C@@H](C(=O)Nc2ccc(F)c(F)c2F)C1=O` [Compound 993], for which the pest or weed control at 125 g/ha is 90% in assay [1]; 0% in assay [2]; 90% in assay [3]; 40% in assay [4]; 0% in assay [5]. Also, the pest or weed control at 500 g/ha in assay [1] was found to be 90%; in assay [2], 50%; in assay [3] it was 90%; in assay [4] it was 80%; in assay [5], 60%.

Consider `CN1CC[C@H](c2ccc(OC(F)(F)F)cc2)[C@@H](C(=O)Nc2ccccc2C(F)(F)F)C1=O` [Compound 998], for which the pest or weed control at 125 g/ha in assay [1], in assay [2], in assay [3], in assay [4] and in assay [5] was 0% throughout. The pest or weed control at 500 g/ha in assay [1], in assay [2], in assay [3], in assay [4] and in assay [5] was 0% throughout.

As to `CN1CC[C@H](c2ccc(OC(F)(F)F)cc2)[C@@H](C(=O)Nc2cccc(F)c2F)C1=O` [Compound 999], the pest or weed control at 125 g/ha in assay [1] amounted to 70%; in assay [2], 0%; in assay [3], 90%; in assay [4], 0%; in assay [5], 0%. Moreover, the pest or weed control at 500 g/ha in assay [1] was 90%; in assay [2], 20%; in assay [3] it was 90%; in assay [4], 50%; in assay [5], 30%.

Turning to `Cc1ccc([C@H]2CN(C)C(=O)[C@@H]2C(=O)Nc2cccc(F)c2F)cc1Cl` [Compound 1013], the pest or weed control at 125 g/ha in assay [1] was found to be 90%; in assay [2], 50%; in assay [3] it was 90%; in assay [4], 30%; in assay [5], 0%. The pest or weed control at 500 g/ha in assay [1] was found to be 90%; in assay [2], 70%; in assay [3] it was 90%; in assay [4], 40%; in assay [5], 0%.

Turning to `COc1ccc([C@H]2CN(C)C(=O)[C@@H]2C(=O)Nc2cccc(F)c2F)cc1F` [Compound 1021], the pest or weed control at 125 g/ha turned out to be 100% in assay [1]; 70% in assay [2]; 100% in assay [3]; 70% in assay [4]; 70% in assay [5]. In addition, the pest or weed control at 500 g/ha is 100% in assay [1]; 90% in assay [2]; 100% in assay [3]; 80% in assay [4]; 70% in assay [5].

For `Cc1cc([C@H]2CN(C)C(=O)[C@@H]2C(=O)Nc2cccc(F)c2F)cc(C)c1Br` [Compound 1024], the pest or weed control at 125 g/ha in assay [1] came to 70%; in assay [2], 30%; in assay [3] it was 90%; in assay [4], 30%; in assay [5] it was 0%. Further, the pest or weed control at 500 g/ha in assay [1] stood at 90%; in assay [2], 40%; in assay [3] it was 90%; in assay [4] it was 50%; in assay [5], 30%.

On to `O=C1NC[C@H](c2ccc3c(c2)OCO3)[C@H]1C(=O)Nc1ccc(F)c(F)c1F` [Compound 1027], for which the pest or weed control at 125 g/ha is 90% in assay [1]; 80% in assay [2]; 40% in assay [3]; 0% in assay [4]; 70% in assay [5]. Further, the pest or weed control at 500 g/ha in assay [1] stood at 90%; in assay [2], 90%; in assay [3] it was 90%; in assay [4], 40%; in assay [5] it was 80%.

Turning to `CN1CC[C@H](c2ccccc2)[C@@H](C(=O)Nc2ccccc2F)C1=O` [Compound 1032], the pest or weed control at 125 g/ha in assay [1] is 20%; in assay [2], 0%; in assay [3] it was 0%; in assay [4] it was 0%; in assay [5] it was 0%. The pest or weed control at 500 g/ha was determined as 70% in assay [1]; 0% in assay [2]; 70% in assay [3]; 0% in assay [4]; 0% in assay [5].

As for `Cc1ccc([C@H]2CNC(=O)[C@@H]2C(=O)Nc2cccc(F)c2F)cc1C` [Compound 1034], the pest or weed control at 125 g/ha in assay [1] is 90%; in assay [2] it was 60%; in assay [3] it was 80%; in assay [4] it was 0%; in assay [5], 30%. Besides, the pest or weed control at 500 g/ha in assay [1] is 90%; in assay [2], 70%; in assay [3] it was 90%; in assay [4], 0%; in assay [5], 90%.

Turning to `Cc1ccc([C@H]2CN(C)C(=O)[C@@H]2C(=O)Nc2ccccc2F)cc1C` [Compound 1038], the pest or weed control at 125 g/ha in assay [1] was found to be 100%; in assay [2] it was 80%; in assay [3], 100%; in assay [4] it was 20%; in assay [5] it was 20%. Moreover, the pest or weed control at 500 g/ha in assay [1] turned out to be 100%; in assay [2], 80%; in assay [3], 100%; in assay [4], 30%; in assay [5], 70%.

With `Cc1cc([C@H]2CNC(=O)[C@@H]2C(=O)Nc2ccccc2F)ccc1C(F)(F)F` [Compound 1042], the pest or weed control at 125 g/ha in assay [1] was determined as 90%; in assay [2], 20%; in assay [3] it was 90%; in assay [4], 30%; in assay [5], 20%. Moreover, the pest or weed control at 500 g/ha in assay [1] turned out to be 90%; in assay [2], 70%; in assay [3], 90%; in assay [4], 50%; in assay [5], 40%.

As for `Cc1cc([C@H]2CNC(=O)[C@@H]2C(=O)Nc2ccccc2Cl)ccc1C(F)(F)F` [Compound 1044], the pest or weed control at 125 g/ha is 90% in assay [1]; 0% in assay [2]; 70% in assay [3]; 0% in assay [4]; 0% in assay [5]. Further, the pest or weed control at 500 g/ha amounted to 90% in assay [1]; 50% in assay [2]; 90% in assay [3]; 30% in assay [4]; 30% in assay [5].
